Test results reported in the NIST ThermoML archive (doi:10.1016/j.fluid.2006.01.030).

Legend:
[1] = Liquid
[2] = xn = mol fraction of the nth substance listed; details: Liquid, x1 = 1

CCO [ethanol]
viscosity [mPa·s], [1]
Details | 293.15 K | 313.15 K | 333.15 K | 353.15 K
100 kPa, Capillary tube (Ostwald / Ubbelohde) method | 1.194 | 0.826 | 0.59 | –
20000 kPa, Falling or rolling sphere viscometry | 1.344 | 0.948 | 0.683 | 0.51
40000 kPa, Falling or rolling sphere viscometry | 1.494 | 1.059 | 0.769 | 0.574
60000 kPa, Falling or rolling sphere viscometry | 1.647 | 1.171 | 0.851 | 0.636
80000 kPa, Falling or rolling sphere viscometry | 1.797 | 1.282 | 0.934 | 0.699
100000 kPa, Falling or rolling sphere viscometry | 1.955 | 1.392 | 1.015 | 0.763

CCO [ethanol] + CCCCCCC
viscosity [mPa·s], [2]
Details | 293.15 K | 313.15 K | 333.15 K | 353.15 K
100 kPa, Capillary tube (Ostwald / Ubbelohde) method | 1.194 | 0.826 | 0.59 | –
20000 kPa, Falling or rolling sphere viscometry | 1.344 | 0.948 | 0.683 | 0.51
40000 kPa, Falling or rolling sphere viscometry | 1.494 | 1.059 | 0.769 | 0.574
60000 kPa, Falling or rolling sphere viscometry | 1.647 | 1.171 | 0.851 | 0.636
80000 kPa, Falling or rolling sphere viscometry | 1.797 | 1.282 | 0.934 | 0.699
100000 kPa, Falling or rolling sphere viscometry | 1.955 | 1.392 | 1.015 | 0.763

CCCCCCC [heptane]
viscosity [mPa·s], [1]
Details | 293.15 K | 313.15 K | 333.15 K | 353.15 K
100 kPa, Capillary tube (Ostwald / Ubbelohde) method | 0.41 | 0.333 | 0.276 | 0.232
20000 kPa, Falling or rolling sphere viscometry | 0.509 | 0.408 | 0.336 | 0.289
40000 kPa, Falling or rolling sphere viscometry | 0.604 | 0.487 | 0.402 | 0.346
60000 kPa, Falling or rolling sphere viscometry | 0.706 | 0.57 | 0.472 | 0.401
80000 kPa, Falling or rolling sphere viscometry | 0.817 | 0.658 | 0.546 | 0.458
100000 kPa, Falling or rolling sphere viscometry | 0.937 | 0.751 | 0.623 | 0.521
